We go through two molecules from patent publication US20190365689A1, “USE OF APE/REF-1 REDOX SPECIFIC INHIBITORS FOR TREATING METASTATIC PROSTATE CANCER” (Indiana University Research and Technology Corporation, priority 2017, published 2019).

The test system of one test is PC-3 cells. The test is described as follows: Methylene blue assay (cell proliferation), PC-3. Type of test: cell-based, human. The settings on record: PC-3, 5 days. As to the method: (§1) The cells were fixed and stained with methylene blue and measured via spectrophotometry. […] EC50s were compared between the drugs: * denotes p<0.05 drug EC50 versus RN7-58, while ¶ denotes p<0.05, APX3330 versus APX2009.
(§2) Methylene Blue Assay (Cell Proliferation)
(§3) Prostate cells were seeded 1,000-5000 per well (cell line/experiment-dependent) and treated with one of APX3330, APX2009 or RN7-58 for 5 days. Media was then removed and cells were fixed with methanol for 10 minutes and stained with 100 μL of 0.05% of methylene blue (LC16920-1 diluted in 1×PBS) for 1 hour. The cells were then washed 3× with water and allowed to air dry overnight. 100 μL of 0.5 N HCl was added to each well to dissolve the methylene blue stain and absorbance (@630) was measured via spectrophotometry. The percent viabilities, normalized to DMSO, were graphed and IC50 concentrations determined.
(§4) To determine if inhibition of APE1/Ref-1's redox function affects cell proliferation, prostatic cell lines were treated with increasing concentrations of redox-specific inhibitors, APX3330 and APX2009, for 5 days and cell number was measured via methylene blue assay (FIG. 2A). […] Growth IC25's and IC50's were determined and arranged in Table 1. Student's t-test was performed to verify statistical IC25 and IC50 differences between APX3330 and APX2009.

A further test deals with C4-2 cells. The test is described as follows: Methylene blue assay (cell proliferation), C4-2. The settings on record: C4-2, 5 days. Type of test: cell-based, human. How it is done:
as §1, §2, §3, §4

Another test relates to LNCaP cells. The test is described as follows: Methylene blue assay (cell proliferation), LNCaP. Type of test: cell-based, human. The settings on record: 5 days. As to the method:
as §1, §2, §3, §4

The subject of another test is E7 cells. The test is described as follows: Methylene blue assay (cell proliferation), E7 non-cancerous prostate epithelial cells. The settings on record: E7, 5 days. Type of test: cell-based. How it is done: as §1, §2, §3, §4
The next test has as its system prostatic cell lines. The test is described as follows: Methylene blue assay (cell proliferation), statements across prostatic cell lines. The settings on record: increasing concentrations, 5 days. Type of test: cell-based, human. As to the method: as §1, §2, §3, §4
A further test concerns survivin. The test is described as follows: Immunoblotting for survivin protein levels in prostate cancer cells. Type of test: cell-based, human. How it is done:
(§5) PC-3 (FIG. 3A), C4-2 (FIG. 3B), LNCaP (FIG. 3C) and E7 (FIG. 3D) cell lines were treated with DMSO, or the growth inhibitory IC25 and IC50 drug concentrations of APX3330 or APX2009 for 48 hours Immunoblotting for survivin, APE1/Ref-1 and Actin as labeled. Representative of three determinations with densitometry quantification, N=3, *-denoting p<0.05 (DMSO vs. IC25 and IC50 Drug Concentrations) within ANOVA.
FIG. 6A: C4-2 cell line was treated with DMSO or APX2009 (14 μM) for 12 hours. RNA was isolated and RT-PCR for survivin was performed with HPRT1 as the reference gene. n=6, *-denoting p<0.05 by unpaired Student's t-test. FIG. 6B: Immunoblot validation of APE1/Ref-1 and p65 Co-Immunoprecipitation (Co-IP) reactions. A 5% sample of the total input of each reaction (Input) and the total IP reaction (IP) were loaded for each reaction. Beads lacking a conjugated antibody (Mock) and generic IgG (IgG) were used as negative controls for each IP experimental reaction, APE1 antibody (top blots) and p65 (bottom blots). FIG. 6C: C4-2 cell line was treated with DMSO, APX2009 (8 and 14 μM) or PDTC (50 and 100 μM) for 72 hours and cells were fixed and methylene blue was performed. n=3, *-denoting p<0.05 (DMSO vs 8 and 14 μM APX2009) and #-denoting p<0.05 (DMSO vs. 50 and 100 μM PDTC) as assessed by ANOVA. […] Data are expressed as Relative Luciferase Units (RLU) normalized to DMSO showing the mean±SEM. n=3, *-denoting p<0.05 (DMSO vs. 14 μM APX2009) and #-denoting p<0.05 (DMSO vs. 100 μM PDTC) within unpaired Students t-test. […] Data presented are representative of three determinations with densitometry quantification, […], *-denoting p<0.05 (DMSO vs. 14 μM APX2009) and #-denoting p<0.05 (DMSO vs. 100 μM) as assessed by unpaired Student's t-test.
Prostate cells were homogenized in lysis buffer containing protease inhibitor (150 mM NaCl, 10 mM tris, 1 mM EDTA, 1 mM benzenesulfonyl fluoride, and 10 μg/ml each of aprotinin, bestatin, L-luecine, and pepstatin A) and 1% Triton X-100. Total protein concentration was determined by BCA (bicinchoninic acid) assay (Pierce, Rockford, Ill.). […]

The test system of a further test is APE1/Ref-1. The test is described as follows: Immunoblotting for total APE1/Ref-1 protein levels in prostate cancer cells. Type of test: cell-based, human. The settings on record: growth inhibitory drug concentrations, 48 hours, vs DMSO. How it is done: as §5
Prostate cells were homogenized in lysis buffer containing protease inhibitor (150 mM NaCl, 10 mM tris, 1 mM EDTA, 1 mM benzenesulfonyl fluoride, and 10 μg/ml each of aprotinin, bestatin, L-luecine, and pepstatin A) and 1% Triton X-100. Total protein concentration was determined by BCA (bicinchoninic acid) assay (Pierce, Rockford, Ill.). 10 μg/well of Protein were resolved by electrophoresis in 4-15% gradient polyacrylamide gels (Bio-Rad Laboratories). […] Peroxidase activity was detected via Pico chemiluminescence reagent (Pierce). Photo images were analyzed by densitometry.

The next test has as its system C4-2 xenograft tumors. The test is described as follows: In vivo subcutaneous C4-2 xenograft tumor. On the set-up: species or system male athymic nude mice. How it is done: C4-2 xenograft tumors were treated with vehicle (Propylene Glycol Kolliphor HS15 Tween 80 (PKT)) or APX2009 (25 mg/kg, IP bid) for 5 days (n=3). Tumors were removed and processed for either immunofluorescence or immunoblotting. FIG. 8A: APE1/Ref-1 and survivin protein levels were measured using immunoblotting as labeled (Left). Data was presented graphically (Right), *-denoting p<0.05 by unpaired Student's t-Test. FIG. 8B: Hematoxylin and Eosin staining and immunofluorescence were performed using APE1/Ref-1 (red) and survivin (green) specific antibodies on vehicle and APX2009 groups. Representative images were taken. White arrows are depicting survivin nuclear staining patterns. […] ImageJ Nucleus Counter was used to quantify number of BrdU+ nuclei and total nuclei per image. n=3, *-denoting p<0.05 by unpaired Student's t-test.
Human prostate specimens or C4-2 xenograft tumors were fixed in 10% formalin, processed routinely, embedded in paraffin, and serially sectioned at 5 μm via microtome. […] The sections were analyzed by immunofluorescence. […]
2×10^6 C4-2 cells were subcutaneously implanted in the hind flank of male athymic nude mice using a 100 μl volume of 50:50 solution of Matrigel: RPMI medium. […] BrdU was injected into the animals 2 hours prior to sacrifice and tumor tissues were analyzed for survivin levels (immunofluorescence and immunoblotting) and BrdU incorporation (immunofluorescence).

The next test has as its system NFκB. The test is described as follows: NFκB-driven luciferase assay in C4-2 cells. Type of test: cell-based, human. The settings on record: C4-2, growth inhibitory IC50 concentrations (14 μM APX2009, 100 μM PDTC), 24 hours. How it is done: FIG. 6A: C4-2 cell line was treated with DMSO or APX2009 (14 μM) for 12 hours. RNA was isolated and RT-PCR for survivin was performed with HPRT1 as the reference gene. n=6, *-denoting p<0.05 by unpaired Student's t-test. FIG. 6B: Immunoblot validation of APE1/Ref-1 and p65 Co-Immunoprecipitation (Co-IP) reactions. A 5% sample of the total input of each reaction (Input) and the total IP reaction (IP) were loaded for each reaction. Beads lacking a conjugated antibody (Mock) and generic IgG (IgG) were used as negative controls for each IP experimental reaction, APE1 antibody (top blots) and p65 (bottom blots). FIG. 6C: C4-2 cell line was treated with DMSO, APX2009 (8 and 14 μM) or PDTC (50 and 100 μM) for 72 hours and cells were fixed and methylene blue was performed. n=3, *-denoting p<0.05 (DMSO vs 8 and 14 μM APX2009) and #-denoting p<0.05 (DMSO vs. 50 and 100 μM PDTC) as assessed by ANOVA. […] Data are expressed as Relative Luciferase Units (RLU) normalized to DMSO showing the mean±SEM. n=3, *-denoting p<0.05 (DMSO vs. 14 μM APX2009) and #-denoting p<0.05 (DMSO vs. 100 μM PDTC) within unpaired Students t-test. […] Data presented are representative of three determinations with densitometry quantification, […], *-denoting p<0.05 (DMSO vs. 14 μM APX2009) and #-denoting p<0.05 (DMSO vs. 100 μM) as assessed by unpaired Student's t-test. […]

Setting [1] is: 25% reduction in absorbance vs DMSO, in µM.
The mark [2] stands for this setting: 50% reduction in absorbance vs DMSO, read-out: Growth IC50.

For orientation: IC50 means the concentration at which inhibition is half-maximal. For the molecule “3-[(5-(2,3-dimethoxy-6-methyl1,4-benzoquinoyl)]-2-nonyl-2-proprionic acid [APX3330]”, the “Growth IC25” value with PC-3 cells (setting [1]) is given as 36.0 +/− 1.0; in the test on C4-2 cells (setting [1]), 57.4 +/− 3.8; in the test with LNCaP cells (setting [1]) it was 43.8 +/− 4.2; in the test on E7 cells (setting [1]), 82.7 +/− 8.7. Moreover, the IC50 is 54.7 µM in the test with PC-3 cells (setting [2]), 89.5 µM in the test on C4-2 cells (setting [2]), 71.9 µM in the test on LNCaP cells (setting [2]) and greater than 100 µM with E7 cells (setting [2]). Also, the “Effect on cell proliferation” value with prostatic cell lines is given as “inhibited cell proliferation in a concentration-dependent manner”. Further, the survivin protein abundance result with survivin (growth inhibitory IC50 drug concentrations, within 48 hours, vs DMSO) is on record as “significant decrease”. In addition, in the test with survivin (prostate cell lines, immunoblotting), the “survival proteins Bcl-2, Mcl-1 and survivin” value is listed as “decrease”. In the test on APE1/Ref-1, the “total APE1/Ref-1 protein levels” value is “not significantly altered”. In addition, in the test on C4-2 xenograft tumors (25 mg/kg BID IP, 5 days, vs vehicle), the “Total survivin protein in tumors via immunoblotting” value is on record as “decreased”. In addition, the “cell proliferation via BrdU staining” value with C4-2 xenograft tumors (prostatic tumor xenografts) is on record as “decreased”.
In the case of `N.S=C(S)N1CCCC1` [PDTC, Ammonium pyrrolidinedithiocarbamate, reference compound], the “reduction in survivin protein levels” value in the test on survivin (C4-2, 14 μM APX2009 / 100 μM PDTC, 48 hours) amounted to 67%. For the same molecule, the “decrease in NFκB-driven luciferase activity” value in the test on NFκB is listed as “two-fold”.
